Reference: patent US12662489B2 (Sitryx Therapeutics Limited, priority 2023, dated 2026)

Legend:
[1] = target: T1, MTHFD2 recombinant human enzyme (Homo sapiens, UniProt P13995); experiment: MTHFD2 inhibition assay (NAD(P)H-Glo luminescence); conditions: for MTHFD1/MTHFD2 IC50 ratio: selectivity of MTHFD2 inhibition over MTHFD1, band
T1 sequence (P13995 36-350): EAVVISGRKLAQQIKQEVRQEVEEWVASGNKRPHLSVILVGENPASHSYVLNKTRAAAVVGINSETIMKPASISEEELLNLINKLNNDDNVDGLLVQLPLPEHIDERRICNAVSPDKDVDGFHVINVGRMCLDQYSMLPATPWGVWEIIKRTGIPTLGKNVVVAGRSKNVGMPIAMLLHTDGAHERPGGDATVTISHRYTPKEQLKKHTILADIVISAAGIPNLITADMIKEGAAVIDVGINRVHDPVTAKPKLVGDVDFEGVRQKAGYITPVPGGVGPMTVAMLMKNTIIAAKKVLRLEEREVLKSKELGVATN

[2] = target: T2, MTHFD1 recombinant human enzyme (Homo sapiens, UniProt P11586); experiment: MTHFD1 inhibition assay (NAD(P)H-Glo luminescence); conditions: MTHFD1 IC50, recombinant human enzyme 200 nM, NADP, band
T2 sequence (P11586 2-291 limits assumed): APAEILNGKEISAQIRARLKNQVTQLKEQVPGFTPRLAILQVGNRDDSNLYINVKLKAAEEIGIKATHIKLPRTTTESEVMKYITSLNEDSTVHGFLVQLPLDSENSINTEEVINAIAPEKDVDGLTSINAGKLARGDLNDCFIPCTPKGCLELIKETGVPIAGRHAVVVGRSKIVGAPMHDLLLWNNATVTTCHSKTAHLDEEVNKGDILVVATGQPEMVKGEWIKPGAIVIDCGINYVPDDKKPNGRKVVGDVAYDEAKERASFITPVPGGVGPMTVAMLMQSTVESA

Row | Compound | IC50 [1] [µM] | MTHFD1/MTHFD2 IC50 ratio [1] | IC50 [2] [µM]
1 | COC[C@H]1CN(c2ccc3c4c(c(=O)oc3c2C)CN(C(=O)c2cc(Cl)c(C(=O)NS(=O)(=O)N(C)C)c(N3CC5CC5C3)c2)CC4)CCN1C (stereo partly drawn) [Example 33, 2-(3-azabicyclo[3.1.0]hexan-3-yl)-6-chloro-N-(N,N-dimethylsulfamoyl)-4-(8-((R)-3-(methoxymethyl)-4-methylpiperazin-1-yl)-7-methyl-5-oxo-1,3,4,5-tetrahydro-2H-chromeno[3,4-c]pyridine-3-carbonyl)benzamide] | 0.01 to 0.1 | H (>9.0 to 30) | 0.1 to 1
2 | COC[C@H]1CN(c2ccc3c4c(c(=O)oc3c2Cl)CN(C(=O)c2ccc(C(=O)NS(=O)(=O)N(C)C(C)C)c(OC3CCC3)c2F)CC4)CCN1C [Example 30, (R)-4-(7-chloro-8-(3-(methoxymethyl)-4-methylpiperazin-1-yl)-5-oxo-1,3,4,5-tetrahydro-2H-chromeno[3,4-c]pyridine-3-carbonyl)-2-cyclobutoxy-3-fluoro-N-(N-isopropyl-N-methylsulfamoyl)benzamide] | 0.01 to 0.1 | F (<3) | 0.01 to 0.1
3 | COC[C@H]1CN(c2ccc3c4c(c(=O)oc3c2C)CN(C(=O)c2ccc(C(=O)NS(=O)(=O)C3(C)CC3)c(OC3CCCC3)c2F)CC4)CCN1C [Example 9, (R)-2-(cyclopentyloxy)-3-fluoro-4-(8-(3-(methoxymethyl)-4-methylpiperazin-1-yl)-7-methyl-5-oxo-1,3,4,5-tetrahydro-2H-chromeno[3,4-c]pyridine-3-carbonyl)-N-((1-methylcyclopropyl)sulfonyl)benzamide] | 0.01 to 0.1 | F (<3) | 0.01 to 0.1
4 | COC[C@H]1CN(c2cc(Cl)c3c4c(c(=O)oc3c2C)CN(C(=O)c2cc(N(C)C)c(C(=O)NS(=O)(=O)N3CC[C@@H](OC)C3)cc2F)CC4)CCN1C [Example 285, 4-(10-chloro-8-((R)-3-(methoxymethyl)-4-methylpiperazin-1-yl)-7-methyl-5-oxo-1,3,4,5-tetrahydro-2H-chromeno[3,4-c]pyridine-3-carbonyl)-2-(dimethylamino)-5-fluoro-N-(((R)-3-methoxypyrrolidin-1-yl)sulfonyl)benzamide] | 0.01 to 0.1 | H (>9.0 to 30) | 0.1 to 1
5 | COC[C@H]1CN(c2cc(C)c3c4c(c(=O)oc3c2C)CN(C(=O)c2ccc(C(=O)NS(=O)(=O)N(C)C)c(N3CC5CC5C3)c2F)CC4)CCN1C (stereo partly drawn) [Example 72, 2-(3-azabicyclo[3.1.0]hexan-3-yl)-N-(N,N-dimethylsulfamoyl)-3-fluoro-4-(8-((R)-3-(methoxymethyl)-4-methylpiperazin-1-yl)-7,10-dimethyl-5-oxo-1,3,4,5-tetrahydro-2H-chromeno[3,4-c]pyridine-3-carbonyl)benzamide] | 0.001 to 0.01 | – | 0.001 to 0.01
6 | COC[C@H]1CN(c2cc(Cl)c3c4c(c(=O)oc3c2C)CN(C(=O)c2cc(N(C)C)c(C(=O)NS(=O)(=O)N3CCC[C@@H]3C(F)(F)F)cc2F)CC4)CCN1C [Example 278, 4-(10-chloro-8-((R)-3-(methoxymethyl)-4-methylpiperazin-1-yl)-7-methyl-5-oxo-1,3,4,5-tetrahydro-2H-chromeno[3,4-c]pyridine-3-carbonyl)-2-(dimethylamino)-5-fluoro-N-(((R)-2-(trifluoromethyl)pyrrolidin-1-yl)sulfonyl)benzamide] | 0.01 to 0.1 | H (>9.0 to 30) | 0.1 to 1
7 | COC[C@H]1CN(c2cc(C)c3c4c(c(=O)oc3c2C)CN(C(=O)c2cc(N(C)C)c(C(=O)NS(=O)(=O)C3(C)CC3)cc2C(F)(F)F)CC4)CCN1C [Example 159, (R)-2-(dimethylamino)-4-(8-(3-(methoxymethyl)-4-methylpiperazin-1-yl)-7,10-dimethyl-5-oxo-1,3,4,5-tetrahydro-2H-chromeno[3,4-c]pyridine-3-carbonyl)-N-((1-methylcyclopropyl)sulfonyl)-5-(trifluoromethyl)benzamide] | 0.1 to 1 | H (>9.0 to 30) | > 5
8 | COC[C@H]1CN(c2ccc3c4c(c(=O)oc3c2C)CN(C(=O)c2cc(N(C)C)c(C(=O)NS(=O)(=O)N3C5CCC3CC5)cc2F)CC4)CCN1C [Example 188, (R)-N-((7-azabicyclo[2.2.1]heptan-7-yl)sulfonyl)-2-(dimethylamino)-5-fluoro-4-(8-(3-(methoxymethyl)-4-methylpiperazin-1-yl)-7-methyl-5-oxo-1,3,4,5-tetrahydro-2H-chromeno[3,4-c]pyridine-3-carbonyl)benzamide] | 0.01 to 0.1 | H (>9.0 to 30) | 1 to 5
9 | COC[C@H]1CN(c2cc(C)c3c4c(c(=O)oc3c2C)CN(C(=O)c2ccc(C(=O)NS(=O)(=O)C3(C)CC3)c(N3CCC[C@@H]3C)c2)CC4)CCN1C [Example 125, 4-(8-((R)-3-(methoxymethyl)-4-methylpiperazin-1-yl)-7,10-dimethyl-5-oxo-1,3,4,5-tetrahydro-2H-chromeno[3,4-c]pyridine-3-carbonyl)-N-((1-methylcyclopropyl)sulfonyl)-2-((S)-2-methylpyrrolidin-1-yl)benzamide] | 0.01 to 0.1 | F (<3) | 0.001 to 0.01
10 | COC[C@H]1CN(c2cc(C)c3c4c(c(=O)oc3c2C)CN(C(=O)c2ccc(C(=O)NS(=O)(=O)N3CC5CC5C3)c(OC3CC3)c2F)CC4)CCN1C (stereo partly drawn) [Example 207, N-((3-azabicyclo[3.1.0]hexan-3-yl)sulfonyl)-2-cyclopropoxy-3-fluoro-4-(8-((R)-3-(methoxymethyl)-4-methylpiperazin-1-yl)-7,10-dimethyl-5-oxo-1,3,4,5-tetrahydro-2H-chromeno[3,4-c]pyridine-3-carbonyl)benzamide] | 0.01 to 0.1 | F (<3) | 0.01 to 0.1
11 | COC[C@H]1CN(c2ccc3c4c(c(=O)oc3c2C)CN(C(=O)c2ccc(C(=O)NS(=O)(=O)N(C)C(C)C)c(OC3CCCC3)c2F)CC4)CCN1C [Example 58, (R)-2-(cyclopentyloxy)-3-fluoro-N-(N-isopropyl-N-methylsulfamoyl)-4-(8-(3-(methoxymethyl)-4-methylpiperazin-1-yl)-7-methyl-5-oxo-1,3,4,5-tetrahydro-2H-chromeno[3,4-c]pyridine-3-carbonyl)benzamide] | 0.001 to 0.01 | – | 0.001 to 0.01
12 | COC[C@H]1CN(c2cc(Cl)c3c4c(c(=O)oc3c2C)CN(C(=O)c2cc(N(C)C)c(C(=O)NS(=O)(=O)N(C)C3CC3)cc2F)CC4)CCN1C [Example 323, (R)-4-(10-chloro-8-(3-(methoxymethyl)-4-methylpiperazin-1-yl)-7-methyl-5-oxo-1,3,4,5-tetrahydro-2H-chromeno[3,4-c]pyridine-3-carbonyl)-N-(N-cyclopropyl-N-methylsulfamoyl)-2-(dimethylamino)-5-fluorobenzamide] | 0.001 to 0.01 | J (>30) | 0.1 to 1
13 | CCOc1cc(C(=O)N2CCc3c(c(=O)oc4c(C)c(N5CCN(C)[C@@H](COC)C5)cc(C)c34)C2)c(F)cc1C(=O)NS(=O)(=O)N1CC[C@@H](F)C1 [Example 261, 2-ethoxy-5-fluoro-N-(((R)-3-fluoropyrrolidin-1-yl)sulfonyl)-4-(8-((R)-3-(methoxymethyl)-4-methylpiperazin-1-yl)-7,10-dimethyl-5-oxo-1,3,4,5-tetrahydro-2H-chromeno[3,4-c]pyridine-3-carbonyl)benzamide] | 0.001 to 0.01 | – | 0.1 to 1
